# Reference: patent publication US20240400555A1 (Initial Therapeutics, Inc., priority 2023, published 2024)
# Tested on: MV-4-11 cells
# Assay: Cell Viability Assay in MV-4-11 Cells
# Format: cell-based
# Details: Homo sapiens, MV4-11, 72 h
# Method in brief: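 Luminescent ATP read-out (CellTiter-Glo) after 72 h compound treatment of MV-4-11 leukaemia cells (7,000 per well, IMDM plus 10% FBS). Values expressed relative to DMSO control and derived by four-parameter non-linear regression.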
row,Compound,IC50
1,"Cc1csc(-c2ccc(C(=O)N(c3nccc4cccc(C)c34)[C@@H]3CCCNC3)c(F)c2)n1 [Example 315, (R)-2-fluoro-N-(8-methylisoquinolin-1-yl)-4-(4-methylthiazol-2-yl)-N-(piperidin-3-yl)benzamide]",240 nM

# Same assay, conditions: Homo sapiens, MV4-11, 72 h, MV-4-11 cells, 72 h, Cell-Titer Glo; read-out: IC50
row,IC50,Compound
1,150 nM,"Cc1nc(-c2ccc3c(N(C(=O)c4ccc(-n5nnc6cccnc65)cc4F)[C@@H]4CCCNC4)nccc3c2)cs1 [Example 575, (R)-4-(3H-[1,2,3]triazolo[4,5-b]pyridin-3-yl)-2-fluoro-N-(6-(2-methylthiazol-4-yl)isoquinolin-1-yl)-N-(piperidin-3-yl)benzamide]"
2,51 nM,"Cc1cc(Cl)cc2ccnc(N(C(=O)c3ccc(-c4cn(C)nn4)cn3)[C@@H]3CCCNC3)c12 [Example 812, (R)—N-(6-chloro-8-methylisoquinolin-1-yl)-5-(1-methyl-1H-1,2,3-triazol-4-yl)-N-(piperidin-3-yl)picolinamide]"
3,300 nM,"Cn1cc(-c2ccc(C(=O)N(c3nccc4sc(-c5cccnc5)cc34)[C@@H]3CCCNC3)c(F)c2)nn1 [Example 508, 2-fluoro-4-(1-methyltriazol-4-yl)-N-[(3R)-3-piperidyl]-N-[2-(3-pyridyl)thieno [3,2-c]pyridin-4-yl] benzamide]"
4,230 nM,"Cc1cc(F)cc2ccnc(N(C(=O)c3ccc(-c4cn(C)nn4)cn3)[C@@H]3CCCNC3)c12 [Example 785, (R)—N-(6-fluoro-8-methylisoquinolin-1-yl)-5-(1-methyl-1H-1,2,3-triazol-4-yl)-N-(piperidin-3-yl)picolinamide]"
5,710 nM,"Cn1cc(-c2ccc(C(=O)N(c3nccc4sc(Br)cc34)[C@@H]3CCCNC3)c(F)c2)nn1 [Example 506, N-(2-bromothieno[3,2-c]pyridin-4-yl)-2-fluoro-4-(1-methyltriazol-4-yl)-N-[(3R)-3-piperidyl] benzamide]"
6,980 nM,"Cn1cc(-c2ccc(C(=O)N(c3nccc4sc(-c5cnn(Cc6cccnc6)c5)cc34)[C@@H]3CCCNC3)c(F)c2)nn1 [Example 485, 2-fluoro-4-(1-methyltriazol-4-yl)-N-[(3R)-3-piperidyl]-N-[2-[1-(3-pyridylmethyl)pyrazol-4-yl]thieno [3,2-c]pyridin-4-yl] benzamide]"
7,26 nM,"Cc1cccc2ccnc(N(C(=O)c3ccc(-c4cn(CCC#N)nn4)cc3F)[C@@H]3CCCNC3)c12 [Example 888, 4-[1-(2-cyanoethyl)triazol-4-yl]-2-fluoro-N-(8-methyl-1-isoquinolyl)-N-[(3R)-3-piperidyl]benzamide]"
8,110 nM,"O=C(c1ccc(-n2nnc3cccnc32)cc1F)N(c1nccc2cc(-c3ccncc3)sc12)[C@@H]1CCCNC1 [Example 384, 2-fluoro-N-[(3R)-3-piperidyl]-N-[2-(4-pyridyl)thieno[2,3-c]pyridin-7-yl]-4-(triazolo[4,5-b]pyridin-3-yl)benzamide]"
9,2300 nM,"Cc1cc(-c2cc3c(N(C(=O)c4ccc(-c5cn(C)nn5)cc4F)[C@@H]4CCCNC4)nccc3s2)cc(C)c1C(N)=O [Example 611, (R)—N-(2-(4-carbamoyl-3,5-dimethylphenyl)thieno[3,2-c]pyridin-4-yl)-2-fluoro-4-(1-methyl-1H-1,2,3-triazol-4-yl)-N-(piperidin-3-yl)benzamide]"
10,290 nM,"Cn1cc(-c2ccc3c(N(C(=O)c4ccc(-c5cn(C)nn5)cc4F)[C@@H]4CCCNC4)nccc3c2)cn1 [Example 445, (R)-2-fluoro-4-(1-methyl-1H-1,2,3-triazol-4-yl)-N-(6-(1-methyl-1H-pyrazol-4-yl)isoquinolin-1-yl)-N-(piperidin-3-yl)benzamide]"
11,220 nM,"Cc1cc(F)c(F)c2ccnc(N(C(=O)c3ccc(-c4cn(C)nn4)cc3)[C@@H]3CCCNC3)c12 [Example 862, N-(5,6-difluoro-8-methyl-1-isoquinolyl)-4-(1-methyltriazol-4-yl)-N-[(3R)-3-piperidyl]benzamide]"
12,250 nM,"Cn1cc(-c2ccc(C(=O)N(c3nccc4cc(-c5ccncc5)sc34)[C@@H]3CCCNC3)c(F)c2)nn1 [Example 505, 2-fluoro-4-(1-methyltriazol-4-yl)-N-[(3R)-3-piperidyl]-N-[2-(4-pyridyl)thieno[2,3-c]pyridin-7-yl]benzamide]"
13,100 nM,"C#Cc1csc2ccnc(N(C(=O)c3ccc(-c4cn(C)nn4)cc3F)[C@@H]3CCCNC3)c12 [Example 674, (R)—N-(3-ethynylthieno[3,2-c]pyridin-4-yl)-2-fluoro-4-(1-methyl-1H-1,2,3-triazol-4-yl)-N-(piperidin-3-yl)benzamide]"
14,420 nM,"Cn1cc(-c2ccc(C(=O)N(c3nccc4cc(Cl)ccc34)[C@@H]3CCCNC3)cc2)nn1 [Example 808, (R)—N-(6-chloroisoquinolin-1-yl)-4-(1-methyl-1H-1,2,3-triazol-4-yl)-N-(piperidin-3-yl)benzamide]"

# More lines, now with the values behind:
row,Compound,IC50
1,"Cc1cccc2ccnc(N(C(=O)N3CCCC(N4C(=O)c5ccccc5C4=O)C3)[C@@H]3CCCNC3)c12 (stereo partly drawn) [Example 345, 3-(1,3-dioxoisoindolin-2-yl)-N-(8-methylisoquinolin-1-yl)-N—((R)-piperidin-3-yl)piperidine-1-carboxamide]",300 nM
2,"CCOc1cc(C)c2c(N(C(=O)c3ccc(-c4nnc(C)s4)cn3)[C@@H]3CCCNC3)nccc2c1 [Example 865, N-(6-ethoxy-8-methyl-1-isoquinolyl)-5-(5-methyl-1,3,4-thiadiazol-2-yl)-N-[(3R)-3-piperidyl]pyridine-2-carboxamide]",150 nM
3,"Cc1cc(C)c2c(N(C(=O)c3ccc(-c4nnc(C)o4)nc3)[C@@H]3CCCNC3)nccc2c1 [Example 642, (R)—N-(6,8-dimethylisoquinolin-1-yl)-6-(5-methyl-1,3,4-oxadiazol-2-yl)-N-(piperidin-3-yl)nicotinamide]",160 nM
4,"Cc1cccc2ccnc(N(C(=O)c3ccc(Nc4nccc(N5CCOCC5C#N)n4)cc3F)[C@@H]3CCCNC3)c12 (stereo partly drawn) [Example 955, 4-((4-(3-cyanomorpholino)pyrimidin-2-yl)amino)-2-fluoro-N-(8-methylisoquinolin-1-yl)-N—((R)-piperidin-3-yl)benzamide]",26 nM
5,"COCCn1cc(-c2ccc(C(=O)N(c3nccc4scc(C)c34)[C@@H]3CCCNC3)cc2)nn1 [Example 639, (R)-4-(1-(2-methoxyethyl)-1H-1,2,3-triazol-4-yl)-N-(3-methylthieno[3,2-c]pyridin-4-yl)-N-(piperidin-3-yl)benzamide]",150 nM
6,"Cc1cccc2ccnc(N(C(=O)c3ccc(Nc4nccc(N5CCC(=O)C5)n4)cc3F)[C@@H]3CCCNC3)c12 [Example 947, (R)-2-fluoro-N-(8-methylisoquinolin-1-yl)-4-((4-(3-oxopyrrolidin-1-yl)pyrimidin-2-yl)amino)-N-(piperidin-3-yl)benzamide]",35 nM
7,"CCN1CCN(c2ccnc(Nc3ccc(C(=O)N(c4nccc5cccc(C)c45)[C@@H]4CCCNC4)c(F)c3)n2)CC1 [Example 713, (R)-4-((4-(4-ethylpiperazin-1-yl)pyrimidin-2-yl)amino)-2-fluoro-N-(8-methylisoquinolin-1-yl)-N-(piperidin-3-yl)benzamide]",82 nM
8,"O=C(c1ccc(Nc2ncccn2)cc1F)N(c1nccc2cc(-c3cccnc3)ccc12)[C@@H]1CCCNC1 [Example 397, (R)-2-fluoro-N-(piperidin-3-yl)-N-(6-(pyridin-3-yl)isoquinolin-1-yl)-4-(pyrimidin-2-ylamino)benzamide]",460 nM
9,"O=C(c1ccc(-n2nnc3cccnc32)cc1F)N(c1nccc2ccccc12)[C@@H]1CCCNC1 [Example 313, (R)-4-(3H-[1,2,3]triazolo[4,5-b]pyridin-3-yl)-2-fluoro-N-(isoquinolin-1-yl)-N-(piperidin-3-yl)benzamide]",230 nM
10,CC(C)(C#N)c1cc(-c2cc3c(N(C(=O)c4ccc(-n5nnc6cccnc65)cc4F)[C@@H]4CCCNC4)nccc3s2)ccn1 [Example 463],320 nM
11,"CS(=O)(=O)c1cccc(-c2cc3c(N(C(=O)c4ccc(-n5nnc6cccnc65)cc4F)[C@@H]4CCCNC4)nccc3s2)c1 [Example 419, 2-fluoro-N-[2-(3-methylsulfonylphenyl)thieno[3,2-c]pyridin-4-yl]-N-[(3R)-3-piperidyl]-4-(triazolo[4,5-b]pyridin-3-yl)benzamide]",200 nM
12,"Cn1cc(-c2ccc(C(=O)N(c3nccc4cccc(/C=C/c5cn[nH]c5)c34)[C@@H]3CCCNC3)cc2)nn1 [Example 348, (R,E)-N-(8-(2-(1H-pyrazol-4-yl)vinyl)isoquinolin-1-yl)-4-(1-methyl-1H-1,2,3-triazol-4-yl)-N-(piperidin-3-yl)benzamide]",460 nM
13,"Cc1cc2c(N(C(=O)c3ccc(-n4cnc5ccccc54)cc3F)[C@@H]3CCCNC3)nccc2s1 [Example 756, (R)-4-(1H-benzo[d]imidazol-1-yl)-2-fluoro-N-(2-methylthieno[3,2-c]pyridin-4-yl)-N-(piperidin-3-yl)benzamide]",> 6300 nM
14,"Cc1cccc2ccnc(N(C(=O)c3cccc(C#CCCC(=O)N4CCC(O)C4)c3)[C@@H]3CCCNC3)c12 (stereo partly drawn) [Example 518, 3-(5-(3-hydroxypyrrolidin-1-yl)-5-oxopent-1-yn-1-yl)-N-(8-methylisoquinolin-1-yl)-N—((R)-piperidin-3-yl)benzamide]",940 nM
15,"Cc1sc2ccnc(N(C(=O)c3ccc(-n4nnc5cccnc54)cc3F)[C@@H]3CCCNC3)c2c1C [Example 820, (R)-4-(3H-[1,2,3]triazolo[4,5-b]pyridin-3-yl)-N-(2,3-dimethylthieno[3,2-c]pyridin-4-yl)-2-fluoro-N-(piperidin-3-yl)benzamide]",220 nM
16,"C#Cc1csc2ccnc(N(C(=O)c3ccc(-c4nnc(C)s4)cc3F)[C@@H]3CCCNC3)c12 [Example 652, N-(3-ethynylthieno[3,2-c]pyridine-4-yl)-2-fluoro-4-(5-methyl-1,3,4-thiadiazol-2-yl)-N-[(3R)-3-piperidyl] benzamide]",180 nM
17,"Cc1cccc2ccnc(N(C(=O)c3ccc(Nc4nccc(NCCO)n4)cc3F)[C@@H]3CCCNC3)c12 [Example 734, (R)-2-fluoro-4-((4-((2-hydroxyethyl)amino)pyrimidin-2-yl)amino)-N-(8-methylisoquinolin-1-yl)-N-(piperidin-3-yl)benzamide]",81 nM
